The source of these data is PMC9525908, “α-Crystallin chaperone mimetic drugs inhibit lens γ-crystallin aggregation: Potential role for cataract prevention” (The Journal of Biological Chemistry, 2022).

Common to all, as to type: biochemical
Experiment [1] has as its target T1, OPJ-MγS (Mus musculus, UniProt O35486, F10S).
T1 construct: made in house; host or cells: E. coli BL21(DE3) pLysS, pET17b vector
T1 sequence (O35486 1-178 F10S): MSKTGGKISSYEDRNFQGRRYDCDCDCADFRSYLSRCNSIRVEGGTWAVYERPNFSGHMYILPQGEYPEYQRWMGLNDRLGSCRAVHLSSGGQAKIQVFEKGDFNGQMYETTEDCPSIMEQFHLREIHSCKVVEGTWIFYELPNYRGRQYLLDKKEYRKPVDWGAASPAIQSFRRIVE
Nature of the experiment: End-point heat-mediated turbidity assay, OPJ-MγS. The conditions noted are these: read-out: Percent Inhibition of heat mediated aggregation, OPJ-MGS. Here is the method: Absorbance was measured at 600 nm with a SpectraMax iD5 (Molecular Devices).
Aggregation kinetics assays at 600 nm in the presence of varying concentrations (0, 100, 200, 300, 400, and 500 μM) of our selected drugs were also performed on mutants of HγD (W43R, W42Q, R14C, and R58H) and MγS (F9S) at a concentration of 1 mg/ml in 50 mM K3PO4 buffer (pH 7.2) in a total volume of 100 μl. WT-HγD and WT-MγS crystallin served as controls for their respective mutant versions. […] Absorbance was monitored every 10 min. […] All the experiments were run in duplicates or triplicates.

The target in experiment [2] is T1, OPJ-MγS. The experiment in a line: Thermal unfolding (Tm), OPJ-MγS. Particulars: 10 μM protein, 100 μM drug; for Tm (°C) OPJ-MGS N-ter: Con 48; for Tm (°C) OPJ-MGS C-ter: Con 63. As to the method:
Thermal denaturation study was monitored using fluorescence spectroscopy. Protein solutions (10 μM) in the presence and absence of drugs or bis-ANS (100 μM) were heated continuously from 30 to 95 °C, and the fluorescence data were collected every 5 °C after 1 min equilibration at the given temperature. Unfolding data were fit to Greene and Pace’s two-state model ([82]) using GraphPad Prism software (GraphPad Software, Inc).

For experiment [3], the target named is T2, WT-MγS (Mus musculus, UniProt O35486).
T2 construct: made in house; host or cells: E. coli BL21(DE3) pLysS, pET17b vector
T2 sequence (O35486 1-178): T1 sequence (O35486 1-178 F10S) with S10F
Nature of the experiment: Dynamic light scattering, WT-MγS. Particulars: 400 μM drug; for Suppression of aggregate formation, DLS temperature scan: WT-MγS, 30–90 °C. Here is the method:
(§1) Efficacy of our selected drugs in preventing the formation of protein aggregates was measured by DLS. Measurements were performed on a Wyatt DynaPro Nanostar. For DLS temperature scan experiment, pure and filtered protein samples (1 mg/ml in 10 mM sodium phosphate buffer, pH 7.2) with and without drugs (400 μM) were analyzed by DLS over a temperature range of 30 to 90 °C. Multiple scans were run for every data point, and the results represent average of individual scans. DLS spectra were also recorded for the samples at the end point of turbidity assay.

Experiment [4] has as its system bovine gamma crystallins. Nature of the experiment: Screen: H2O2 and heat mediated aggregation of bovine gamma crystallins, turbidimetry at 600 nm. Particulars: bovine γ-crystallin-rich proteins, oxidant stress 24 h and/or thermal stress 72 °C 20 min. As to the method: For the initial screen, a microtiter plate assay was developed in which bovine crystallins (2 mg/ml of 50 mM K3PO4 buffer, pH 7.2 [buffer A]) were exposed to H2O2 at varying concentrations (1–50 mM) for 12 to 36 h, upon which turbidity developed (at 50 mM H2O2 concentration) in both β- and γ-crystallins (Fig. 1, A and B). […] This was determined by turbidimetry at 600 nm (Fig. 1C) and confirmed using visual assessment of solution transparency over a fine text as well as the presence of cloudy aggregates visible by dark field microscopy (Fig. 1D). The drug:protein stoichiometric ratio was about 5:1. The wavelength of 600 nm was chosen to minimize interference by colored compounds, many of which absorb below 500 nm (Fig. 1E).
Wells were filled with 90 μl calf γ-crystallin-rich protein solution (pool 4 at 2 mg/ml) followed by 0.5 to 5.0 μl of drug (all 10 mM stock solution in DMSO) as supplied by the manufacturer and 10 μl H2O2 (450 mM stock solution in water) and sealed with sticky Applied Biosystems MicroAmp Clear Adhesive films (Life Technologies). Control wells received DMSO only. […] In order to quantitate the impact of the drugs on aggregation, a fitness plot was created (Fig. 1 C) that allowed us to identify wells with enhanced/worsening versus suppressed crystallin aggregation. In addition, aggregation in each well was also visually assessed by two independent “blinded” readers for the ability to read fine print through each well by placing the plates over small font text (Fig. 1D). Both machine and visual readouts were reconciled in order to increase robustness.

Experiment [5] has as its target T3, R58H mutant of HγD (Homo sapiens, UniProt P07320, R59H).
T3 construct: made in house; host or cells: E. coli BL21(DE3) pLysS
T3 sequence (P07320 1-174 R59H): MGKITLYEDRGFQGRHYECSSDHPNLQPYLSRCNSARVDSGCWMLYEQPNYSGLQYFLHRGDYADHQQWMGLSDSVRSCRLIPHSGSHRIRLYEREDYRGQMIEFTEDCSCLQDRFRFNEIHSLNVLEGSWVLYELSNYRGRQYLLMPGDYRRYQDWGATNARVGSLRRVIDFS
The experiment in a line: End-point turbidity assay (72 °C, 20 min) of R58H mutant. Particulars: 500 μM drug, read-out: Inhibition of aggregation (%) R58H. As to the method:
Aggregation kinetics assays at 600 nm in the presence of varying concentrations (0, 100, 200, 300, 400, and 500 μM) of our selected drugs were also performed on mutants of HγD (W43R, W42Q, R14C, and R58H) and MγS (F9S) at a concentration of 1 mg/ml in 50 mM K3PO4 buffer (pH 7.2) in a total volume of 100 μl. WT-HγD and WT-MγS crystallin served as controls for their respective mutant versions. For W43R mutant, aggregation assay was done at 42 °C for a total of 200 min. Absorbance was monitored every 10 min. For R14C and R58H mutants, end-point turbidity assay was done at 72 °C for 20 min. […] All the experiments were run in duplicates or triplicates.

Experiment [6] has as its target T1, OPJ-MγS. The experiment in a line: Dynamic light scattering, OPJ-MγS. The conditions noted are these: 400 μM drug; for Percent Mass Peak 1 / Percent Mass Peak 2 / Radius (nm) Peak 1 / Radius (nm) Peak 2: OPJ-MγS 45 μM, 72 °C 20 min; for Suppression of aggregate formation, DLS temperature scan: OPJ-MγS, 30–90 °C. Here is the method: as §1
[7] abbreviates: 500 μM drug, end point of turbidity assay 72 °C 20 min.

Molecules are shown by their SMILES. Substitutions are numbered along the chain they refer to. Read-outs that look alike come from different tables or passages of the source.

As to `O=C(O)CCCCCCCCCCCC[C@@H]1C=CCC1` [drug M, Chaulmoogric acid], the inhibition – broadly, the drop in the measured response relative to a control, in per cent – at 500 µM in experiment [1] (setting [7]) came out at 33.6 ± 2.36%. Besides, in experiment [2], the “Tm (°C) OPJ-MGS N-ter” value was determined as 48 °C and the “Tm (°C) OPJ-MGS C-ter” value is 63 °C. Moreover, in experiment [3] (WT-MγS 45 μM, 72 °C 20 min), the “Percent Mass Peak 1” value is recorded as 1.4%, the “Percent Mass Peak 2” value was 98.6%, the “Radius (nm) Peak 1” value is 622.0 nm and the “Radius (nm) Peak 2” value came out at 6200.7 nm. For the same molecule, in experiment [3], the “Suppression of aggregate formation, DLS temperature scan” value (“Suppression of aggregate formation” below) is “no suppression”. Moreover, in experiment [4], the Antiaggregation activity entry is reported as “Dual heat shock inhibitor + antioxidant”. In experiment [5], the inhibition at 500 µM came to 44%. Besides, in experiment [6], the “Percent Mass Peak 1” value was 0%, the “Percent Mass Peak 2” value worked out at 100%, the “Radius (nm) Peak 1” value is given as 53.1 nm and the “Radius (nm) Peak 2” value is on record as 5594.1 nm. In addition, the “Suppression of aggregate formation” value in experiment [6] is “no suppression”.
For `CC(C)=CCC[C@]1(C)C=Cc2c(O)c3c(c(CC=C(C)C)c2O1)O[C@]12C(=C[C@@H]4C[C@H]1C(C)(C)O[C@@]2(C/C=C(/C)C(=O)O)C4=O)C3=O` [drug G, Gambogic acid], the inhibition at 500 µM in experiment [1] turned out to be 91.6 ± 0.09%. Besides, in experiment [2], the “Tm (°C) OPJ-MGS N-ter” value turned out to be 50 °C and the “Tm (°C) OPJ-MGS C-ter” value was found to be 70 °C. In experiment [3] (WT-MγS 45 μM, 72 °C 20 min), the “Percent Mass Peak 1” value is listed as 100% and the “Radius (nm) Peak 1” value was 77.9 nm. For the same molecule, in experiment [3], the “Suppression of aggregate formation” value is on record as “strong suppressive effects”. Also, the Antiaggregation activity result in experiment [4] is given as “Strong heat shock inhibitor”. In addition, the inhibition at 500 µM in experiment [5] stood at 83%. In experiment [6], the “Percent Mass Peak 1” value came to 100%; the “Radius (nm) Peak 1” value is recorded as 79.3 nm; the “Suppression of aggregate formation” value is reported as “strong suppressive effects”.
`Oc1c(Cl)cc(Cl)c(Cl)c1Cc1c(O)c(Cl)cc(Cl)c1Cl` [drug X, Hexachlorophene]: in experiment [1], the inhibition at 500 µM worked out at 60.9 ± 0.8%. Moreover, the “Suppression of aggregate formation” value in experiment [3] and in experiment [6] was “mild suppressive effects” in each case.
Regarding `COC(=O)/C=C/C(C)=C\C=C\C(C)=C\C=C\C=C(C)\C=C\C=C(C)\C=C\C(=O)O` [drug B, Bixin], the inhibition at 500 µM in experiment [1] (setting [7]) came to 77.6 ± 0.21%. In addition, the “Suppression of aggregate formation” value in experiment [3] and in experiment [6] was “mild suppressive effects” each time. The Antiaggregation activity result in experiment [4] is “Medium heat shock inhibitor”.
On to `Cc1cc(C(C#N)c2ccc(Cl)cc2)c(Cl)cc1NC(=O)c1cc(I)cc(I)c1O` (centres unmarked) [drug C, Closantel], for which the inhibition at 500 µM in experiment [1] amounted to 82 ± 0.49%. Moreover, in experiment [2], the “Tm (°C) OPJ-MGS N-ter” value was 50 °C and the “Tm (°C) OPJ-MGS C-ter” value came to 69 °C. Also, in experiment [3] (WT-MγS 45 μM, 72 °C 20 min), the “Percent Mass Peak 1” value is 100% and the “Radius (nm) Peak 1” value came to 86.6 nm. In addition, the “Suppression of aggregate formation” value in experiment [3] is on record as “strong suppressive effects”. The Antiaggregation activity entry in experiment [4] is “Medium strong dual inhibitor”. For the same molecule, the inhibition at 500 µM in experiment [5] was found to be 55%. In addition, in experiment [6], the “Percent Mass Peak 1” value is recorded as 32%, the “Percent Mass Peak 2” value stood at 68%, the “Radius (nm) Peak 1” value is listed as 21.9 nm and the “Radius (nm) Peak 2” value amounted to 358.7 nm. The “Suppression of aggregate formation” value in experiment [6] is “strong suppressive effects”.
On to `CC(C)=CCCC1(C)C=Cc2c(O)c3c(c(CC=C(C)C)c2O1)OC12C(=CC4CC1C(C)(C)OC2(C/C=C(/C)C(=O)O)C4O)C3=O` (centres unmarked) [drug D, dihydrogambogic acid], for which the inhibition at 500 µM in experiment [1] turned out to be 85.1 ± 0.68%. Moreover, the “Suppression of aggregate formation” value in experiment [3] and in experiment [6] was “mild suppressive effects” in each case. The Antiaggregation activity result in experiment [4] is reported as “Strong heat shock inhibitor”.
